Data published in patent US20110144064A1, “Inhibitors of Kynurenine Aminotransferase and Uses Therefor” (priority 2005, published 2011).
Values joined by “and” are separate entries in the source; they are usually repeats but may differ in a detail not shown here. Equal values may be shown once.

target: T1, rat liver partially purified KAT II (Rattus norvegicus, UniProt Q64602); test: Inhibition of kynurenine aminotransferase II activity ([3H]-kynurenine to [3H]-kynurenic acid); assay type: biochemical; conditions: IC50 kynurenine aminotransferase II
T1 construct: rat liver partially purified KAT II; from tissue; host or cells: rat liver
Experimental: Compounds were tested as inhibitors of kynurenine aminotransferase II and the IC50 values determined. For the determination of the KAT II activity, 80 μl of rat liver partially purified KAT II was incubated (2 hrs at 37° C. with 100 μl of 150 mM Tris-acetate (pH 7.4), 2 μM kynurenine, (2.5 nCi) [^3H]-kynurenine 1 mM pyruvate and 70 μM pyridoxal-5′-phosphate. Add 20 μl of the inhibitor solution (10×). The reaction was terminated by the addition of 14 μl of 50% trichloroacetic acid and 1 ml of 0.1 N hydrochloric acid. The denaturated protein was removed by centrifugation and 1 ml of the supernatant was applied to a Dowex 50 W H^+ cation exchange column which was then washed with 1 ml of 0.1 N hydrochloric acid followed by 1 ml of ultrapure water. [^3H]-Kynurenic acid formed was subsequently eluted with 2×1 ml of ultrapure water and radioactivity was quantified by liquid scintillation spectrometry.
All compounds are in the racemic form, when applicable, unless indicated otherwise. Other untested compounds are commercially available or easily synthesized using standard synthetic methods. Data are presented as IC50 values in μM for all tested compounds. Blanks are untested compounds.

T1 sequence (Q64602 30-425): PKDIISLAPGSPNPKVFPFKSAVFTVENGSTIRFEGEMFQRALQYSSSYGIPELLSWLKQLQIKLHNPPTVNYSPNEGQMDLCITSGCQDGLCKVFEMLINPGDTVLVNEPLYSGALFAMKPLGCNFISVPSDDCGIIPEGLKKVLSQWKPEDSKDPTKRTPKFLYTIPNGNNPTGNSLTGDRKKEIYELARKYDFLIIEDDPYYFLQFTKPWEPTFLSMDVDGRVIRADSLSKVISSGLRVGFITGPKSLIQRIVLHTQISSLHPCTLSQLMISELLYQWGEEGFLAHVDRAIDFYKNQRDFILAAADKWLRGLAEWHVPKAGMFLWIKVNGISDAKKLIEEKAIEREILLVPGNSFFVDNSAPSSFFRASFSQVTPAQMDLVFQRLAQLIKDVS

| SMILES | IC50 [µM] |
| --- | --- |
| NC(CCCCCC(=O)O)C(=O)O (racemic) [n=5, R^1 = NH^2, DL-2-amino-1,8-octanedioic acid] | 272 |

same assay, conditions: IC50 kynurenine aminotransferase II, rat liver partially purified KAT II, 2 hrs at 37° C., pH 7.4, 2 μM kynurenine, 1 mM pyruvate

| SMILES | IC50 [µM] |
| --- | --- |
| NC(CCC(=O)O)C(=O)O (racemic) [n=2, R^1 = NH^2, DL-2-amino-1,5-pentanedioic acid] | 2250 |
| NC(CCP(=O)(O)O)C(=O)O (racemic) [n=2, X = PO3H2 (DL), DL-2-amino-4-phosphonobutyric acid] | 505 |
| NC(CCCCCP(=O)(O)O)C(=O)O (stereo not drawn) [n=5, X = PO3H2 (DL), 2-amino-7-phosphonoheptanoic acid] | 1460 |

same assay, conditions: rat liver partially purified KAT II, 2 hrs at 37° C., pH 7.4, 2 μM kynurenine, 1 mM pyruvate

| IC50 kynurenine aminotransferase II | SMILES |
| --- | --- |
| inactive | O=C(O)CC(=O)O [n=0, R^1 = H] |
| inactive | O=C(O)CCCCCCC(=O)O [n=5, R^1 = H] |
| inactive | O=C(O)CCC(=O)O [n=1, R^1 = H] |

| SMILES | IC50 kynurenine aminotransferase II |
| --- | --- |
| O=C(O)CCCC(=O)O [n=2, R^1 = H] | inactive |

same assay, conditions: rat liver partially purified KAT II, 2 hrs at 37° C., pH 7.4, 2 μM kynurenine, 1 mM pyruvate; read-out: IC50 kynurenine aminotransferase II

| SMILES | IC50 |
| --- | --- |
| NC(CCCCCCCCCCCCCC(=O)O)C(=O)O (racemic) [n=13, R^1 = NH^2, DL-2-amino-1,16-hexadecanedioic acid] | 6 µM and 6.4 µM |
| O=C(O)CCCCC(=O)O [n=3, R^1 = H, 1,6-hexanedioic acid] | 1290 µM |
| O=C(O)CCCCCCCCCC(=O)O [n=8, R^1 = H, 1,11-undecanedioic acid] | 234 µM |
| O=C(O)CCCCCCCCC(=O)O [n=7, R^1 = H, 1,10-decanedioic acid] | 720 µM |
| NC(CCCCCCC(=O)O)C(=O)O (racemic) [n=6, R^1 = NH^2, DL-2-amino-1,9-nonanedioic acid] | 355 µM |
| N[C@@H](CS(=O)O)C(=O)O [n=1, X = S02H (L), cysteinesulfinic acid] | 1150 µM |
| O=C(O)CCCCCC(=O)O [n=4, R^1 = H, 1,7-heptanedioic acid] | 6370 µM |
| N[C@@H](CCS(=O)O)C(=O)O [n=2, X = S02H (L), homocysteinesulfinic acid] | 224 µM |
| O=C(O)CCCCCCCCCCC(=O)O [n=9, R^1 = H, 1,12-dodecanedioic acid] | 256 µM |
| O=C(O)CCCCCCCC(=O)O [n=6, R^1 = H, 1,9-nonanedioic acid] | 4580 µM |
| NC(CCCP(=O)(O)O)C(=O)O (racemic) [n=3, X = PO3H2 (DL), DL-2-amino-5-phosphonopentanoic acid] | 1000 µM |
| NC(CC(=O)O)C(=O)O (racemic) [n=1, R^1 = NH^2, DL-2-amino-1,4-butanedioic acid] | 2460 µM |
| O=C(O)CCCCCCCCCCCCCCCO [n = 13, R1, R2 = H, X = CH2OH, 16-hydroxyhexadecanoic acid] | 149 µM |
| NC(CS(=O)(=O)O)C(=O)O (centres unmarked) [n=1, X = SO3H (L), 2-amino-3-sulfopropionic acid] | 739 µM |

Other lines, results leading:

| IC50 | SMILES |
| --- | --- |
| 63 µM | NC(CCS(=O)(=O)O)C(=O)O (centres unmarked) [n=2, X = SO3H (L), 2-amino-4-sulfobutyric acid] |
| 29.3 µM | CNC(CCCCCCCCCCCCCC(=O)O)C(=O)O (racemic) [DL-2-methylamino-1,16-hexadecanedioic acid] |
| 7 µM | NC(CCCCCCCCCCC(=O)O)C(=O)O (racemic) [n=10, R^1 = NH^2, DL-2-amino-1,13-tridecanedioic acid] |
| 71 µM | O=C(O)CCCCCCCCCCCCCC(=O)O [n=12, R^1 = H, 1,15-pentadecanedioic acid] |
| 8 µM | NC(CCCCCCCCCC(=O)O)C(=O)O (racemic) [n=9, R^1 = NH^2, DL-2-amino-1,12-dodecandioic acid] |
| 102 µM | O=C(O)CCCCCCCCCCCCC(=O)O [n=11, R^1 = H, 1,14-tetradecanedioic acid] |
| 14 µM | NC(CCCCC(=O)O)C(=O)O (racemic) [n=4, R^1 = NH^2, DL-2-amino-1,7-heptanedioic acid] |
| 7 µM | NC(CCCCCCCCC(=O)O)C(=O)O (racemic) [n=8, R^1 = NH^2, DL-2-amino-1,11-undecanedioic acid] |
| 60 µM | O=C(O)CCCCCCCCCCCCCCC(=O)O [n=13, R^1 = H, 1,16-hexadecanedioic acid] |
| 170 µM | O=C(O)CCCCCCCCCCCC(=O)O [n=10, R^1 = H, 1,13-tridecanedioic acid] |
| 53.7 µM | CC(N)(CCCCCCCCCCCCCC(=O)O)C(=O)O (racemic) [DL-2-amino-2-methyl-1,16-hexadecanedioic acid] |
| 18 µM | NC(CCCC(=O)O)C(=O)O (racemic) [n=3, R^1 = NH^2, DL-2-amino-1,6-hexanedioic acid] |
| 85 µM | NC(CCCCCCCCCCCCCCC(=O)O)C(=O)O (racemic) [n=14, R^1 = NH^2, DL-2-amino-1,17-heptadecanedioic acid] |
